# Measurements taken from publication PMC11612460, “Development of a novel gut microphysiological system that facilitates assessment of drug absorption kinetics in gut” (Scientific Reports, 2024).
# Columns and labels:
# [1] = in vitro; settings: human
# Protocol: (§1) The seeding medium and culture medium of hiSIECs for LLI and ALI were obtained from FUJIFILM Corporation. hiSIECs were cultured according to the manufacturer’s instructions. Briefly, Fluid3D-X® devices were coated with Corning Matrigel GFR Basement Membrane Matrix (Corning) on the day before seeding the cells. hiSIECs were seeded onto a Fluid3D-X® device at 5.3 × 10^5 cells/MPS and incubated for 5.5 h. The seeding medium was added to the device, and cell culture was started in flow for 11 days at 20 pps 1/4 (3.8 µL/min). After one day, the seeding medium was replaced with LLI culture medium, and the medium was changed every two or three days. ALI culture was performed using the same method as the LLI culture, but the apical channel medium was removed to expose the cells to air on day 4. On day 11 after seeding, the gut MPS was used for the assay.
# (§2) Eight gut chips were divided into two groups: with and without inhibitors. […] Because all steps were performed under static conditions, 200 µL of buffer was transferred from the outlet to the inlet by a micropipette before collection of each sample. Serial sampling (150 µL) was performed at following time points (0, 30, 60, 90, and 120 min) from both the donor and acceptor sides. Equal volumes of fresh buffer were added after the sample collection. At the end of the experiment (120 min), the cell lysates were collected. The concentrations of drugs and/or metabolites in the transport buffer and cells were measured by LC-MS/MS. To observe the inhibitory effects of the inhibitor on compound transport, transport experiments were performed in the presence of an inhibitor cocktail containing ketoconazole (10 µM), PSC833 (5 µM), and Ko143 (5 µM) to inhibit CYP3A4, P-gp, and BCRP.
# (§3) The permeability, efflux ratio, and Fg parameters were derived as follows:
# (§4) The apparent permeability coefficient (Papp, cm/s) was calculated using Eq. (1):1 [drawing 1]
# (§5) where dQ/dt, MPS surface area, and C0 represent the amount of the test compound transported to the receiver compartment per unit time when the linearity of its time-dependent transport was
# (§6) apparently maintained, the culture area of the gut MPS/Fluid3D-X (0.64 cm^2), and the
# (§7) initial concentration of the test compound in the donor compartment.2 [drawing 2]
# (§8) where Papp, basal to apical and Papp, apical to basal represent the apparent permeability coefficient in the
# (§9) basolateral-to-apical and apical-to-basolateral directions, respectively.
# (§10) The intestinal availability (Fg) of CYP3A substrates was calculated based on a previous report[35] using the following equation:3 [drawing 3]
# (§11) where CLapical to basal (+ inhibitor) and CLapical to basal (-inhibitor) represent the transcellular transport clearance in the apical-to-basolateral direction in the presence or absence of the inhibitor, respectively.
# (§12) The specimens were deproteinated with 3-times volumes of acetonitrile and centrifuged to obtain supernatants. For quantification of the drug concentration on the donor side, the specimens were further diluted 20 times with acetonitrile. Two microliters of each sample was subjected to LC–MS/MS analysis. An AB SCIEX QTRAP 5500 + mass spectrometer (Applied Biosystems, Foster City, CA) equipped with a Nexera X2 LC system (Shimadzu, Kyoto, Japan), operated in electron spray ionization mode, was used for the analysis. Chromatographic separation was performed at 40 °C on a GL Sciences Inc instrument. InertSustain C18 HP analytical column (2.1 I.D. × 100 mm, 3 μm) at a flow rate of 0.5 ml/min using the gradient method. The mobile phase consisted of 2 mmol/L ammonium acetate and 0.1% formic acid in water (mobile phase A) and 0.1% formic acid in acetonitrile (mobile phase B). […] The ion spray voltage and temperature were set at 4500 V and 600 °C, respectively.
# [2] = test system: hiSIECs monolayers in gut MPS/Emulate; test: Permeability / donor concentration of test drugs using gut MPS/Emulate (fluidic conditions)
# Protocol: F-hiSIEC was thawed and suspended in seeding medium according to the manufacture’s protocol. The suspension of F-hiSIEC (6.0×10^6 cells/mL, 35-40 μL/chip) was transferred to the chip and incubated at 37 °C overnight. The cells were then cultured in maintenance medium under perfusion culture conditions at a flow rate of 15 μL/hr from day1 to day 4 and 30 μL/h from day 5 to day9. Gravity wash and prime cycle were performed when necessary. Additionally, the membrane strain rate was set to 2% at a frequency of 0.15 Hz from day 3 to day 5 and to 10% from day 6 to day 9. The permeability of the test drugs was assessed on day 9.
# The test drugs were added to the culture medium. The top and bottom channels of the chip were perfused with the media at a flow rate of 30 μL/h. […] Inhibitors (10μM Ketoconazole, 5μM PSC833 and 5μM Ko143) were added as a cocktail to both the channels. Media were collected from the outlet chamber at 6, 24, 30, and 48 h.
# [3] = test system: hiSIECs monolayers in gut MPS/Fluid3D-X; test: in vitro; settings: for effect of inhibitor cocktail on apical-to-basal transport: ketoconazole 10 µM
# Protocol: as §1, §2, §3, §4, §5, §6, §7, §8, §9, §10, §11, §12
# [4] = test system: hiSIECs; settings: ref 20 (Shirai et al.); cited from earlier work
# [5] = in vivo, human; cited from earlier work
# [6] = Papp, apical to basal, inhibitor (+)
# [7] = Papp, apical to basal, inhibitor (-)
# [8] = Papp, basal to apical, inhibitor (-), no inhibitor, mean ± SD, n = 4, deuterium-labeled compound dosed to basal side, apical pH 6.5, basal pH 7.4
# [9] = with ketoconazole 10 µM, PSC833 5 µM, Ko143 5 µM (both sides)
SMILES,efflux ratio at 120 min [1],"Papp at 120 min [1, 6] [nm/s]","Papp at 120 min [1, 7] [nm/s]","Papp at 120 min [1, 8] [nm/s]","Papp at 120 min [1, 9] [nm/s]","efflux ratio at 120 min [1, 9]","effect of inhibitor cocktail on apical-to-basal transport ([3]; PSC833 5 µM, Ko143 5 µM)",also measured
C=C[C@H]1C[N@@]2CC[C@H]1C[C@@H]2[C@@H](O)c1ccnc2ccc(OC)cc12 [Quinidine],2.02 ± 0.37,38.8 ± 11.2,21.5 ± 3.3,43.7 ± 1.5,43.7 ± 15.3,1.12 ± 0.63,–,effluent concentration as percent of the corresponding inlet concentrations ([2]; at 24 h): 82%; reduction of concentration in the effluent relative to original drug solution ([2]; within the first 6 h): 29%
O=C(O)c1cc(/N=N/c2ccc(S(=O)(=O)Nc3ccccn3)cc2)ccc1O [Sulfasalazine],12.7 ± 2.3,5.57 ± 0.95,5.05 ± 0.72,64.4 ± 4.5,11 ± 2.9,1.97 ± 0.76,–,"decrease in intrinsic clearance (directional transport) in the presence of transporter inhibitors ([3]; inhibitor cocktail ketoconazole 10 µM, PSC833 5 µM, Ko143 5 µM): 85%"
Cc1ncc2n1-c1ccc(Cl)cc1C(c1ccccc1F)=NC2 [Midazolam],–,–,–,–,–,–,increased with the addition of inhibitors,"Fg reported by Shirai et al. [4]: 0.74; fraction that escaped from the gut metabolism (Fg) ([3]; from ratio of apical-to-basal transport clearance with and without inhibitor): 0.64; Papp at 120 min ([1]; Papp, apical to basal, inhibitor (+), inhibitor cocktail ketoconazole 10 µM, PSC833 5 µM, Ko143 5 µM, mean ± SD, n = 3): 144 ± 19 nm/s; Papp at 120 min ([1]; Papp, apical to basal, inhibitor (-), no inhibitor, mean ± SD, n = 4, apical pH 6.5, basal pH 7.4): 112 ± 6 nm/s; Fg, clinical value [5]: 0.55; donor concentration relative to spiked concentration ([2]; presumably adsorption to the device): almost half of the spiked concentration"
Cc1cc(=O)n(-c2ccccc2)n1C [Antipyrine],–,185 ± 12,201 ± 27,–,–,–,not affected by the inhibitors,"efflux ratio at 120 min ([1]; Efflux ratio (ER), inhibitor (+)): 0.78 ± 0.076; efflux ratio at 120 min ([1]; Efflux ratio (ER), inhibitor (-)): 0.656 ± 0.12; Papp at 120 min ([1]; Papp, basal to apical, inhibitor (+)): 144 ± 7 nm/s; Papp at 120 min ([1]; Papp, basal to apical, inhibitor (-)): 132 ± 11 nm/s"
OCc1ncc2n1-c1ccc(Cl)cc1C(c1ccccc1F)=NC2 [1-hydroxymidazolam],–,–,–,–,–,–,–,"secretion of metabolite to apical versus basal channel side ([3]; midazolam dosed apical): preferentially secreted to the apical channel side; formation of metabolite 1-hydroxymidazolam from midazolam in presence of inhibitors ([3]; midazolam dosed apical, inhibitor cocktail): decreased formation"
